Literature values as cited in patent publication US5041644A, “Peptide derivatives of β-chloro-L(Z)-dehydro-glutamic acid” (Merck & Co., Inc., priority 1987, dated 1991).

What was measured:
Micrococcus luteus = conditions: very narrow antibacterial spectrum; activity practically limited only to Micrococcus luteus
[1] = system: D-Alanyl-D-Alanine ligase (synthetase); conditions: at both the donor and acceptor sites; most potent ligase inhibitor described heretofore

Compound	antibacterial activity (Micrococcus luteus)	inhibition of the ligase [1]
N[C@@H](C(=O)O)/C(Cl)=C/C(=O)O [β-chloro-L-(Z)-dehydroglutamic acid]	shows an antibacterial activity	–
N[C@@H]1CONC1=O [D-Cycloserine]	–	reversible inhibitor
